In the PolyMetriX glass transition set:
± gives the standard deviation of the reports.

Structure (SMILES) | glass transition temperature [°C]
*C(=O)Nc1cc(NC(=O)c2cccc(*)n2)cc(-c2nnc(-c3ccccn3)o2)c1 (repeat unit) | 255.00
*Nc1cc(NC(=O)c2cccc(C(*)=O)c2)cc(C(=O)OCCOC(=O)/C=C/c2ccc(N(C)C)cc2)c1 (repeat unit) | 186.00
*Oc1ccc(NC(=O)c2cccc(C(=O)Nc3ccc(Oc4ccc(C(=O)c5ccc(*)cc5)cc4)cc3)c2)cc1 (repeat unit) | 145.00
*N(CCC)[Si](C)(C)C[Si](*)(C)C (repeat unit) | -20.00
*Oc1ccc(S(=O)(=O)c2ccc(Oc3ccc(NC(=O)c4cc(NC(=O)c5ccncc5)cc(C(=O)Nc5ccc(*)cc5)c4)cc3)cc2)cc1 (repeat unit) | 283.00
*c1ccc([Si](c2ccccc2)(c2ccccc2)c2ccc(-c3nnc(-c4cccc(-c5nnc(*)o5)n4)o3)cc2)cc1 (repeat unit) | 265.00
*Oc1cccc(OC(=O)c2ccc(C(C)(C)c3ccc(C(*)=O)cc3)cc2)c1 (repeat unit) | 158.00
*OP(=O)(Oc1ccc(OC)cc1)Oc1c(C)cc(S(=O)(=O)c2cc(C)c(*)c(C)c2)cc1C (repeat unit) | 147.00
*CC(CCCCCCOc1ccc(/N=N/c2ccc(Cl)cc2)cc1)COC(=O)CCCCC(=O)O* (repeat unit) | 9.00
*O[Si](C)(CCC(F)(F)F)CCC(F)(F)C(F)(F)C(F)(F)C(F)(F)C(F)(F)C(F)(F)C(F)(F)C(F)(F)C(F)(F)C(F)(F)CC[Si](*)(C)CCC(F)(F)F (repeat unit) | -11.00
*C1CCC(CC2CCC(N3C(=O)c4ccc(Oc5ccc6c(c5)C(=O)N(*)C6=O)cc4C3=O)CC2)CC1 (repeat unit) | 240.00
*CC(*)(C)C(=O)OCc1ccccc1 (repeat unit) [Poly(benzyl methacrylate)] | 54.00 ± 0.5
*SCC(=O)N/N=C/c1ccc(OCCCCCCCCCCOc2ccc(/C=N/NC(=O)CSc3nnc(*)s3)cc2)cc1 (repeat unit) | 117.00
*c1ccc(-c2ccc(N3C(=O)c4c(c(-c5ccccc5)c(-c5ccc(Oc6ccc(-c7c(-c8ccccc8)c8c(c(-c9ccccc9)c7-c7ccccc7)C(=O)N(*)C8=O)cc6)cc5)c(-c5ccccc5)c4-c4ccccc4)C3=O)cc2)cc1 (repeat unit) | 399.00
*O[Si](*)(C)CCCCCCCCCCC(=O)Oc1ccc(C(=O)Oc2ccc(-c3ccc(OC(=O)c4ccc(OCC(C)CC)cc4)cc3)cc2)cc1 (repeat unit) | 74.30
*c1ccc(OCOc2ccc(-c3nc(-c4ccc([N+](=O)[O-])cc4)oc3*)cc2)cc1 (repeat unit) | 194.00
*c1c(C)cc(C)c(N2C(=O)c3ccc(Sc4ccc5c(c4)C(=O)N(*)C5=O)cc3C2=O)c1C (repeat unit) | 378.00
*c1ccc(Oc2ccc(C(c3ccc(Oc4ccc(N5C(=O)c6ccc(Oc7ccccc7Oc7ccc8c(c7)C(=O)N(*)C8=O)cc6C5=O)cc4C(F)(F)F)cc3)(C(F)(F)F)C(F)(F)F)cc2)c(C(F)(F)F)c1 (repeat unit) | 191.00
*c1ccc(C(=O)OCCCCCCCCCCOC(=O)c2ccc(-c3nnc(*)s3)cc2)cc1 (repeat unit) | 79.00
*c1ccc(Cc2ccc(N3C(=O)C4CCC5C(=O)N(*)C(=O)C5C4C3=O)c(C)c2)cc1C (repeat unit) | 340.00
*CC(*)C(=O)OCCCCCn1c2ccccc2c2ccccc21 (repeat unit) | 53.00
*CCCCCCNC(=O)CCC(C)CC(=O)N* (repeat unit) | 17.00
*c1cccc(C(=O)Nc2cccc(S(=O)(=O)c3cccc(NC(=O)c4cccc(N5C(=O)c6ccc(-c7ccc8c(c7)C(=O)N(*)C8=O)cc6C5=O)c4)c3)c2)c1 (repeat unit) | 247.00

Structure (SMILES) | glass transition temperature [°C]
*CC(*)c1ccc([Si](C)(O[Si](C)(C)C)O[Si](C)(C)C)cc1 (repeat unit) | 54.00
*Oc1ccc(S(=O)(=O)c2ccc(Oc3ccc(C(C)(C)c4ccc(*)cc4)cc3)cc2)c(N)c1 (repeat unit) | 202.00
*CC(*)OC(C)CC (repeat unit) [Poly(vinyl sec-butyl ether) ] | -22 ± 3
*Nc1cc(NC(=O)c2ccc3cc(C(*)=O)ccc3c2)cc(C(=O)OCCOc2ccc(/C=C/C(=O)c3ccccc3)cc2)c1 (repeat unit) | 247.00
*CC(=O)OC(=O)COc1ccc(O*)cc1 (repeat unit) | 70.00
*c1ccc2c(c1)C(=O)N(c1cccc(Oc3cccc(N4C(=O)c5ccc(C(F)(F)C(F)(F)C(*)(F)F)cc5C4=O)c3)c1)C2=O (repeat unit) | 312.00
*/C=C/CCCC(Cl)CCC* (repeat unit) | -63.00
*c1ccc(C(=O)c2ccc(Oc3ccc(-c4nn(*)c(=O)c5ccccc45)c(F)c3)cc2)cc1 (repeat unit) | 253.00
*/C(OC)=C(\OC)c1ccc(*)s1 (repeat unit) | 91.00
*C(=O)c1ccc2c(c1)C(=O)N(c1ccc(C(c3ccc(N4C(=O)c5ccc(*)cc5C4=O)cc3)(C(F)(F)F)C(F)(F)F)cc1)C2=O (repeat unit) | 308.03
*c1cccc(NC(=O)c2ccc(-c3ccc(C(=O)Nc4cccc(S(*)(=O)=O)c4)c(C)c3)cc2C)c1 (repeat unit) | 260.00
*C(=O)c1cc(C(=O)c2ccc3c(c2)C(=O)N(c2ccc(Oc4ccc(N5C(=O)c6ccc(*)cc6C5=O)cc4)cc2)C3=O)cc(C(C)(C)C)c1 (repeat unit) | 252.50
*CC(*)(CCCCC)C(=O)OC (repeat unit) | 53.00
*CC(CC(C)C)S(*)(=O)=O (repeat unit) | 23.00
*CCCC1(CCCNC(=O)CCCCC(=O)N*)c2ccccc2-c2ccccc21 (repeat unit) | 120.00
*Oc1cccc2ccc(Oc3ccc(NC(=O)c4cc(C(=O)Nc5ccc(*)cc5)cc(C(C)(C)C)c4)cc3)cc12 (repeat unit) | 263.00
*c1ccc(OCCOc2ccc(/C=C/c3ccc([N+](=O)[O-])cc3)c(OCCOc3ccc(-c4nc5ccc(Oc6ccc7nc(*)c(-c8ccccc8)nc7c6)cc5nc4-c4ccccc4)cc3)c2)cc1 (repeat unit) | 187.00
*c1ccc(Oc2c(F)c(F)c(C(=O)c3c(F)c(F)c(Oc4ccc(C5(*)OC(=O)c6ccccc65)cc4)c(F)c3F)c(F)c2F)cc1 (repeat unit) | 215.00
*CC(*)C(=O)Oc1ccc(C(=O)OC)cc1 (repeat unit) | 67.00
*CCCC(=O)Nc1ccc(Oc2ccc(Oc3ccc(NC(=O)CCCN4C(=O)c5ccc(C(=O)c6ccc7c(c6)C(=O)N(*)C7=O)cc5C4=O)cc3)cc2)cc1 (repeat unit) | 178.00
*c1ccc2c(c1)C(=O)N(c1c(C)cc(-c3cc(C)c(N4C(=O)c5ccc(C(*)(C(F)(F)F)C(F)(F)F)cc5C4=O)c(C)c3)cc1C)C2=O (repeat unit) | 370.50
*Cc1cccc(CNC(=O)CCCCC(=O)N*)c1 (repeat unit) | 84.00
